Assay results as given in paper PMC11432330, “Novel Drug-like HsrA Inhibitors Exhibit Potent Narrow-Spectrum Antimicrobial Activities against Helicobacter pylori” (International Journal of Molecular Sciences, 2024).
Values after ≈ are worked out from the molar mass of the structure shown. Read-outs that look alike come from different tables or passages of the source.

Legend:
[1] = system: H. pylori ATCC 43504 (MTZ-R); assay: MIC/MBC, broth microdilution; type: cell-based, Helicobacter pylori; details: Helicobacter pylori, ATCC43504
Procedure: (§1) The antimicrobial activity of the HsrA inhibitors was evaluated by the determination of the minimal inhibitory concentration (MIC) against four different strains of H. pylori: ATCC 700392 (aka 26695), ATCC 43504 (MTZ-resistant reference strain), ATCC 700684 (CLR-resistant reference strain), and Donostia 2 (LVX-resistant clinical isolate). The MICs were determined by the broth microdilution method, as previously described. Briefly, H. pylori strains were grown in blood agar at 37 °C for 72 h under microaerobic conditions. Fresh inoculums adjusted at OD600 = 0.01 [~10^6 colony forming units (CFU) per mL] in BHI broth supplemented with 4% fetal bovine serum (BHI + FBS) were prepared and immediately exposed to final concentrations between 64 and 0.031 mg/L of each compound of interest. The compound solvent (DMSO) as well as conventional antibiotics (MTZ, CLR, LVX) were included as controls. […] Each experiment was performed twice in triplicate. The MIC and MBC values of the selected compounds against C. jejuni ATCC 33560 were determined by using the same method and culture conditions described for the H. pylori strains.

[2] = system: H. pylori ATCC 700392 (26695); assay: MIC/MBC, broth microdilution; type: cell-based, Helicobacter pylori; details: Helicobacter pylori, ATCC700392
Procedure: as §1

[3] = system: H. pylori ATCC 700684 (CLR-R); assay: MIC/MBC, broth microdilution; type: cell-based, Helicobacter pylori; details: Helicobacter pylori; for MBC: ATCC700684, read-out: MBC; for MIC: ATCC700684, read-out: MIC
Procedure: as §1

[4] = system: H. pylori Donostia 2 (LVX-R); assay: MIC/MBC, broth microdilution; type: cell-based, Helicobacter pylori; details: Helicobacter pylori
Procedure: as §1

[5] = system: E. coli ATCC 25922; assay: MIC/MBC according to EUCAST guidelines; type: cell-based; details: Escherichia coli, ATCC25922
Procedure: (§2) The antimicrobial activities of the selected compounds against several Gram-negative and Gran-positive representative species of normal human microbiota were determined according to the EUCAST guidelines. Briefly, standardized inoculums (0.5 McFarland) were freshly prepared from overnight Mueller–Hinton agar plates of reference strains E. coli ATCC 25922, K. pneumonia ATCC 700603, E. faecalis ATCC 29212, S. aureus ATCC 29213, S. epidermidis ATCC 12228, and S. agalactiae ATCC 12386. Next, bacterial suspensions adjusted to 5 × 10^5 CFU/mL in Mueller–Hinton broth were exposed to a range of concentrations from 64 to 0.031 mg/L of the selected compounds. DMSO and conventional antibiotics LVX and AMP were included as controls. […] Experiments were performed twice in triplicate.

[6] = system: E. faecalis ATCC 29212; assay: MIC/MBC according to EUCAST guidelines; type: cell-based; details: Enterococcus faecalis, ATCC29212
Procedure: as §2

[7] = system: S. agalactiae ATCC 12386; assay: MIC/MBC according to EUCAST guidelines; type: cell-based; details: Streptococcus agalactiae, ATCC12386
Procedure: as §2

[8] = system: S. aureus ATCC 29213; assay: MIC/MBC according to EUCAST guidelines; type: cell-based; details: Staphylococcus aureus, ATCC29213
Procedure: as §2

[9] = system: S. epidermidis ATCC 12228; assay: MIC/MBC according to EUCAST guidelines; type: cell-based; details: Staphylococcus epidermidis, ATCC12228
Procedure: as §2

[10] = system: H. pylori strain ATCC 700392; assay: Time-kill kinetic assay; type: cell-based, Helicobacter pylori; details: 4 × MIC, 10^4 CFU/mL
Procedure: Time-kill kinetics of selected HsrA inhibitors were carried out as previously described, with slight modifications. Briefly, fresh grown cells of H. pylori strain ATCC 700392 were resuspended in BHI + FBS at 1.0 × 10^4 CFU/mL and exposed to 4 × MIC of each compound. Bacteria exposed to DMSO (vehicle) instead of the HsrA inhibitors were included as a control. All cultures were incubated at 37 °C under microaerobic conditions, and aliquots were taken after 0, 2, 4, 8, and 24 h of exposure for CFU determination. Experiments were performed twice in triplicate. Results were presented as log10 CFU/mL versus hours of exposure. Differences in H. pylori survival were subjected to statistical analysis by using the Mann–Whitney U test.

[11] = target: HsrA (Helicobacter pylori, UniProt O25684); assay: Isothermal titration calorimetry (ITC) with HsrA; type: binding; details: for ΔG: absolute error 0.1; for ΔH: absolute error 0.4
HsrA, sequence (O25684 entry or part of it): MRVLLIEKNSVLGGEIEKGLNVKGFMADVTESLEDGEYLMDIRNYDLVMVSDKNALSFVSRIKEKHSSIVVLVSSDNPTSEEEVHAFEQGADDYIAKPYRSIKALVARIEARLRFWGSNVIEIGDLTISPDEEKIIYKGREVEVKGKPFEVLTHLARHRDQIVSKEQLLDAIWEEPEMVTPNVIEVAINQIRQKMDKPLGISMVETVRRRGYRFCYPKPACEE
Procedure: Molecular interactions of the selected ligands with proteins HsrA or CosR were studied by isothermal titration calorimetry (ITC), as previously described. Titrations were assessed in a high-sensitivity MicroCal Auto-iTC200 calorimeter (Malvern Panalytical, Malvern, UK). Experiments were carried out at 25 °C in freshly prepared buffer containing 50 mM Tris-HCl [pH 8], 150 mM NaCl, 10% glycerol, and 1% DMSO. A 20 µM solution of protein was located in the calorimetric cell. Then, a sequence of 19 injections of 2 µL volume each with a 200 µM solution of the corresponding ligand was programmed with a time spacing of 150 s, a stirring speed of 750 rpm, and a reference power of 10 µcal/s in the sample cell. Thermodynamic properties such as binding stoichiometry, dissociation constants, and binding enthalpies were calculated by nonlinear least-squares regression data analysis using Origin 7.0 software.

[12] = ITC, 25 °C, pH 8, relative error 15%, read-out: Kd
[13] = H. pylori ATCC 43504 (MTZ-R), read-out: MBC
[14] = H. pylori ATCC 43504 (MTZ-R), read-out: MIC
[15] = H. pylori ATCC 700392 (26695), read-out: MBC
[16] = H. pylori ATCC 700392 (26695), read-out: MIC
[17] = H. pylori Donostia 2 (LVX-R), read-out: MBC
[18] = H. pylori Donostia 2 (LVX-R), read-out: MIC

SMILES	MBC [3] [µg/mL]	MIC [3] [µg/mL]	MBC [5] [µg/mL]	MIC [5] [µg/mL]	MBC [6] [µg/mL]	MIC [6] [µg/mL]	MBC [7] [µg/mL]	MIC [7] [µg/mL]	MBC [8] [µg/mL]	MIC [8] [µg/mL]	MBC [9] [µg/mL]	MIC [9] [µg/mL]	Exposure time after which 10^4 H. pylori cells were completely killed [10] [h]	n (stoichiometry) ([11]; ITC, 25 °C, pH 8)	Kd [11, 12] [µM]	ΔG ([11]; ITC, 25 °C)	ΔH ([11]; ITC, 25 °C)	MBC [1, 13] [µg/mL]	MIC [1, 14] [µg/mL]	MBC [2, 15] [µg/mL]	other results
NC(=NOC(=O)Nc1ccc(Cl)cc1)c1csc([N+](=O)[O-])c1 [Ligand V, N′-{[(4-chloroanilino)carbonyl]}oxy-5-nitrothiophene-3-carboximidamide]	0.031 (≈ 0.091 µM)	0.031 (≈ 0.091 µM)	> 64	> 64	> 64	> 64	> 64	> 64	> 64	> 64	> 64	> 64	2	1.0	13	–6.7 kcal/mol	–1.9 kcal/mol	–	–	–	MBC [1]: 0.125 µg/mL (≈ 0.367 µM); MIC [1]: 0.125 µg/mL (≈ 0.367 µM); MBC [2]: 0.125 µg/mL (≈ 0.367 µM); MIC [2]: 0.063 µg/mL (≈ 0.185 µM); MBC [4]: 0.125 µg/mL (≈ 0.367 µM); MIC [4]: 0.125 µg/mL (≈ 0.367 µM); Affinity to HsrA relative to ligand XII ([11]; ITC): > 3 fold
OC1(C(F)(F)F)CC(c2ccc3c(c2)Nc2ccccc2S3)=NN1 (stereo not shown) [Ligand VIII]	2 (≈ 5.69 µM)	1 (≈ 2.85 µM)	> 64	> 64	64 (≈ 182 µM)	64 (≈ 182 µM)	32 (≈ 91.1 µM)	16 (≈ 45.5 µM)	32 (≈ 91.1 µM)	16 (≈ 45.5 µM)	4 (≈ 11.4 µM)	4 (≈ 11.4 µM)	2	0.9	10	–6.8 kcal/mol	0.8 kcal/mol	2 (≈ 5.69 µM)	1 (≈ 2.85 µM)	2 (≈ 5.69 µM)	MIC [2, 16]: 1 µg/mL (≈ 2.85 µM); MBC [4, 17]: 2 µg/mL (≈ 5.69 µM); MIC [4, 18]: 2 µg/mL (≈ 5.69 µM)
CSc1cccc(NC(=S)NCCNc2c([N+](=O)[O-])cc(C(F)(F)F)cc2[N+](=O)[O-])c1 [Ligand IV]	4 (≈ 8.41 µM)	4 (≈ 8.41 µM)	> 64	> 64	> 64	> 64	> 64	> 64	> 64	> 64	> 64	> 64	4	0.9	–	–7.4 kcal/mol	–1.6 kcal/mol	4 (≈ 8.41 µM)	2 (≈ 4.21 µM)	4 (≈ 8.41 µM)	MIC [2, 16]: 2 µg/mL (≈ 4.21 µM); MBC [4, 17]: 4 µg/mL (≈ 8.41 µM); MIC [4, 18]: 4 µg/mL (≈ 8.41 µM); Kd [11]: 3.9 µM
CSc1cccc(Nc2nc(C(C)(C)C)cs2)c1 [Ligand XI]	4 (≈ 14.4 µM)	2 (≈ 7.18 µM)	> 64	> 64	64 (≈ 230 µM)	64 (≈ 230 µM)	8 (≈ 28.7 µM)	8 (≈ 28.7 µM)	32 (≈ 115 µM)	16 (≈ 57.5 µM)	64 (≈ 230 µM)	16 (≈ 57.5 µM)	4	1.1	49	–5.9 kcal/mol	–3.1 kcal/mol	4 (≈ 14.4 µM)	2 (≈ 7.18 µM)	4 (≈ 14.4 µM)	MIC [2, 16]: 4 µg/mL (≈ 14.4 µM); MBC [4, 17]: 4 µg/mL (≈ 14.4 µM); MIC [4, 18]: 2 µg/mL (≈ 7.18 µM)
N#C/C(=C\C=C\c1ccccc1)c1nc2ccccc2[nH]1 [Ligand XII]	0.5 (≈ 1.84 µM)	0.5 (≈ 1.84 µM)	> 64	> 64	> 64	> 64	> 64	> 64	> 64	> 64	> 64	> 64	4	1.0	43	–6.0 kcal/mol	0.8 kcal/mol	0.5 (≈ 1.84 µM)	0.5 (≈ 1.84 µM)	2 (≈ 7.37 µM)	MIC [2, 16]: 2 µg/mL (≈ 7.37 µM); MBC [4, 17]: 1 µg/mL (≈ 3.69 µM); MIC [4, 18]: 1 µg/mL (≈ 3.69 µM)
N#Cc1cnn(-c2ccc(C(F)(F)F)cc2[N+](=O)[O-])c1N [Ligand I]	4 (≈ 13.5 µM)	4 (≈ 13.5 µM)	> 64	> 64	> 64	> 64	64 (≈ 215 µM)	32 (≈ 108 µM)	> 64	> 64	> 64	> 64	8	1.0	13	–6.7 kcal/mol	–1.2 kcal/mol	1 (≈ 3.36 µM)	1 (≈ 3.36 µM)	4 (≈ 13.5 µM)	MIC [2, 16]: 4 µg/mL (≈ 13.5 µM); MBC [4, 17]: 2 µg/mL (≈ 6.73 µM); MIC [4, 18]: 2 µg/mL (≈ 6.73 µM)
